Experimental data reported in patent US20220380408A1, “COMPOSITIONS AND METHODS FOR INHIBITING NEOINTIMAL FORMATION” (University of Virginia Patent Foundation, priority 2019, published 2022).
Entries after “also recorded” stand apart in the source; their conditions may differ. Ends that are not written are not given here. * marks the point of attachment. Stearoyl = CCCCCCCCCCCCCCCCCC(=O)*

Tests used:
cyclin D = test: Co-immunoprecipitation of Cx43 with cyclin D in human coronary artery smooth muscle cells; format: cell-based; conditions: hCASMC
Method: (§1) Protein expression and interaction in cultured human coronary artery smooth muscle cells. Human coronary artery smooth muscle cells (Thermo Fisher Scientific, Inc., Waltham, Massachusetts, United States of America), were cultured until confluent in M231 media containing growth supplement (Thermo Fisher Scientific, Low Serum Growth Supplement Kit (LSGS) kit) as well as 20% fetal bovine serum (FBS). Prior to incubations, media was switched to low serum media (M231+2% FBS) for 3 days as previously described (Lohman et al., 2016). Cells were then incubated with oxidized phospholipids 1-palmitoyl-2-glutaroyl-sn-glycero-3-phosphorylcholine (PGPC, 100 μg) and 1-palmitoyl-2-oxovaleroyl-sn-glycero-3-phosphorylcholine (POVPC 100 μg), or the growth factor platelet derived growth factor beta (PDGF, 20 ng) as we have previously described (Johnstone et al. 2009; Johnstone et al. 2012) for 48 hours prior to harvesting and analysis for Western blotting and co-immunoprecipitation and EDU proliferation by flow cytometry as previously described (Johnstone et al. 2012). For peptide incubations, peptides were pre-incubated for 30 minutes with cells in fresh media prior to adding any further treatments.
However, the ability to bind with, and therefore activate, cyclin D was inhibited in the presence of PGPC (see FIG. 2A). […]

[1] = tested on: Human coronary artery smooth muscle cells; test: EDU proliferation by flow cytometry in cultured human coronary artery smooth muscle cells; format: cell-based; conditions: for proliferation (EDU incorporation, flow cytometry): hCASMC incubated with agent for 48 hours (PGPC 100 μg, POVPC 100 μg, PDGF 20 ng)
Method: as §1
However, the ability to bind with, and therefore activate, cyclin D was inhibited in the presence of PGPC (see FIG. 2A). […] Taken together, this identified Cx43 phosphorylation status as a molecular switch that controlled cellular proliferation (MAPK-Cx43) or quiescence (PKC-Cx43), a model that is depicted in see FIG. 2C.
(§2) Peptides representing sequences within the C-terminus of human Cx43, designed by peptide array, inhibited proliferation of human smooth muscle cells (see FIGS. 3A-3F). Cells were pretreated for 30 minutes with peptides, prior to incubation with PDGF for 2 days.

[2] = tested on: human saphenous vein tissues; test: Ex vivo human saphenous vein explant model (HUSVEM); format: cell-based; conditions: PDGF 50 ng/mL, 14 days, peptide 30 μM, everolimus 10 nM
Method: Ex vivo, human saphenous vein explant model (HUSVEM). The translational relevance of the peptides was assessed in an ex vivo, human saphenous vein explant model (HUSVEM) based on previously validated protocols (Baker et al. 1997; Dreifaldt et al. 2013; Loesch, Dashwood & Souza, 2006; George et al., 1996). Briefly, human veins were obtained as excess tissue from coronary artery bypass surgeries. The protocol was assessed by the Institutional Review Board (IRB) of the University of Virginia (Charlottesville, Va., United States of America), and no IRB protocol was required. Human saphenous veins were opened laterally, cut into 10 mm sections, and pinned with the endothelial side facing up on SYLGARD® brand silicone curing agent-coated plates in RMPI media containing 2% FBS. After 1 hour, cells were incubated with either control peptide or CycliCx peptide (30 μM; LDPAKDCGDQKYAY; SEQ ID NO: 1) or everolimus (10 nM; Sigma Aldrich) for a further 60 minutes, prior to adding PDGF (50 ng/mL). Media was changed daily with fresh media containing peptides or everolimus and PDGF. At the end of 14 days media was removed and tissues fixed in 4% PFA for 24 hours then washed in 70% ethanol, prior to embedding in 3% agarose. Samples were then processed by routine paraffin embedding and stained using hematoxylin and eosin and van Gieson stains. Comparisons of neointmal growth were made, where the uppermost layer of elastin was used to identify the start region for formed neointima. Neointimal areas were calculated across 10 serial sections from each tissue and averaged. Analysis of PDGF treated vessels to peptide and everolimus treated tissues were made.
An exemplary CycliCx peptide (LDPAKDCGDQKYAY; SEQ ID NO: 1) was applied to human saphenous veins in ex vivo preparations for 2 weeks in the presence of PDGF and compared to everolimus, an agent used in drug eluting stents.

mouse carotid arteries = test: Mouse carotid ligation neointimal formation model; format: in vivo; conditions: for Neointimal/media Ratio (±SEM): carotid ligation, 200 μg peptide in pluronic, 2 weeks
Method: Mouse carotid surgeries. Carotid ligation and pluronic application surgeries were performed as described (Johnstone et al. 2009; Johnstone et al. 2012). Briefly, mice were anesthetized by isoflurane and the left common carotid artery was exposed and carefully freed from surrounding tissue. A 6/0 silk suture was run under the carotid artery distal to the bifurcation site and two consecutive, flat square knots were tied tight enough to restrict blood flow. Control mice were surgical controls, where carotid artery was exposed and freed of surrounding tissue as described above but no suture was applied. Following ligation either 35% F127 pluronic gel, CycliCx peptide (200 μg in pluronic; LDPAKDCGDQKYAY; SEQ ID NO: 1) or control peptide (200 μg in pluronic; AYFNGCSSPTAPLDP; SEQ ID NO: 3) was applied to the outside of the carotid wall and surgical wound closed. At 2 weeks after surgery, mice were euthanized with an intraperitoneal injection of 60-90 mg/kg pentobarbital. Mice were perfused with 4% paraformaldehyde (PFA) and both treated (left common) and control (right common) carotids removed and stored in 4% PFA overnight for whole mount analysis or immunosectioning. For in vivo cell proliferation studies, mice were preinjected with 5-ethynyl-2′-deoxyuridine (EDU) prior to surgery and carotids were removed post-treatment for whole mount or tissue cross section analysis of EDU incorporation into proliferating cells. For analysis of neointima formation in vessels, areas corresponding to the media (containing vascular smooth muscle cells (VSMC)), neointima (containing proliferating VSMC) and lumen (void area) were measured on Haemotoxylin and Eosin (H&E) stained cross sections of carotid vessels and analyzed by Image J, image analysis software. The ratio of media:neointima was calculated.
An exemplary CycliCx peptide (LDPAKDCGDQKYAY; SEQ ID NO: 1) was applied to the carotids of mice for 14 days after placement of a suture to induce neointimal formation (FIG. 4A). In both ligation only and ligation with peptide, extensive neointima formed. […] Effects were tested in both male and female mice, and no sex-specific differences were noted (FIG. 4B and Table 1).

cyclin E [3] = target: T1, cyclin E (Homo sapiens, UniProt P24864); test: Peptide array (truncation array) probed with cyclin E protein; format: binding; design: made in house; conditions: based on mouse Cx43 sequence; cyclin E 10 μg/mL overnight
T1 sequence (P24864 whole entry, the tested form may be a part): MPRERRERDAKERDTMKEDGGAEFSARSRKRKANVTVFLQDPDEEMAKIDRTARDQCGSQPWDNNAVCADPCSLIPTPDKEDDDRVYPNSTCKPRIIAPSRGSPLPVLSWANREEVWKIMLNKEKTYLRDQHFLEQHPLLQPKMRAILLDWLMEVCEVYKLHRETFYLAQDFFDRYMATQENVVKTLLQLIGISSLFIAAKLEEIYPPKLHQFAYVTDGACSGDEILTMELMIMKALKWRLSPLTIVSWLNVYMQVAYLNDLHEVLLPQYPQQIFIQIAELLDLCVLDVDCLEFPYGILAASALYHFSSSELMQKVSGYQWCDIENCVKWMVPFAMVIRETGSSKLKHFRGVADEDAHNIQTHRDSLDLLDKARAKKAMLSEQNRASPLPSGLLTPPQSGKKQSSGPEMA
Source text: Peptide array. The C-terminus of the human Cx43 polypeptpide (Cx43-CT) is about 150 amino acids (a.a.) with a high abundance (>10%) of post-translationally modified sites (Aasen et al., 2018). This means that hundreds of combinations are required to delineate binding parameters. Using novel peptide array technology, the sites of interaction between connexin 43 (Cx43) and cyclin E were mapped. Immobilized peptide libraries corresponding to 25-residue regions of Cx43-CT were designed, synthesized, and nitrocellulose arrays generated. To test the requirement for phosphorylation, specific residues were replaced to mimic known protein interacting states (e.g., MAPK-Cx43 serines 255/262/279/282; see Johnstone et al. 2012). The role for phosphorylation was assayed in binding using single and multiple residue replacements. These included wild-type serine (S), native phospho-serine (pS), aspartate (D, phospho-mimic), or alanine (A, phospho-null) residues. Recombinant human cyclin E protein was generated for incubation with arrays (Johnstone et al. 2012). […] Signal was then detected using electrochemiluminescence (ECL) detection reagents as per manufacturer protocol (PIERCE™ brand, available from Thermo Fisher Scientific, Inc., Waltham, Mass., United States of America) and blots were scanned for analysis. […]

Cx43 = test: Western blot of Cx43 phosphorylation status in human coronary artery smooth muscle cells; format: cell-based; conditions: hCASMC
Method: as §1, §2

cyclin E [4] = target: T1, cyclin E; test: Co-immunoprecipitation of Cx43/cyclin E interaction in human SMC; format: cell-based; design: host or cells: human coronary artery smooth muscle cells; conditions: versus no peptide and scrambled peptide
Method: as §1
Peptides representing sequences within the C-terminus of human Cx43, designed by peptide array, inhibited proliferation of human smooth muscle cells (see FIGS. 3A-3F). […]

[5] = tested on: human melanoma (A375-MA2); test: WST-1 (viability/MTT) assay of cancer cell proliferation, A375-MA2; format: cell-based; conditions: single treatment 30 μM at day 0; versus control peptide
Method: (§3) Two cancer cell lines originating from human melanoma (A375-MA2) and triple negative breast cancer (Hs578T) were used to assess the role of CycliCx in inhibiting proliferation. 500 cells per well were cultured in a 96-well plate containing 100 μl of medium. The next day (Day 0), 30 μM of CycliCx peptide or control peptide was added to the cells. Starting from Day 0, 10 μl of WST-1 reagent (viability/MTT) was added to each well and incubated for 75 minutes. Absorbance was measured at 450 nm. Data are presented in FIGS. 6B (A375-MA2) and 6C (Hs578T) as mean±SEM. p<0.05 by two way ANOVA.

[6] = tested on: triple negative breast cancer (Hs578T); test: WST-1 (viability/MTT) assay of cancer cell proliferation, Hs578T; format: cell-based, human; conditions: single treatment 30 μM at day 0; versus control peptide
Method: as §3

CCCCCCCCCCCCCCCC(=O)OC[C@H](COP(=O)([O-])OCC[N+](C)(C)C)OC(=O)CCCC(=O)O [PGPC, 1-palmitoyl-2-glutaroyl-sn-glycero-3-phosphorylcholine, reference compound] was tested, and the “ability of Cx43 to bind with, and therefore activate, cyclin D” value (cyclin D) was “inhibited” and the “proliferation (EDU incorporation, flow cytometry)” value [1] was “decreased proliferation”.

In the case of CCCCCCCCCCCCCCCC(=O)OC[C@H](COP(=O)([O-])OCC[N+](C)(C)C)OC(=O)CCCC=O [POVPC, 1-palmitoyl-2-oxovaleroyl-sn-glycero-3-phosphorylcholine, reference compound], the “proliferation (EDU incorporation, flow cytometry)” value [1] is reported as “increased proliferation”.

With CO[C@H]1C[C@@H]2CC[C@@H](C)[C@@](O)(O2)C(=O)C(=O)N2CCCC[C@H]2C(=O)O[C@H]([C@H](C)C[C@@H]2CC[C@@H](OCCO)[C@H](OC)C2)CC(=O)[C@H](C)/C=C(\C)[C@@H](O)[C@@H](OC)C(=O)[C@H](C)C[C@H](C)/C=C/C=C/C=C/1C [everolimus, reference compound] the “neointimal formation in human saphenous veins” value [2] was “inhibited neointimal formation”.

With “AYFNGCSSPTAPLDP [Control Pep, non-targeting control peptide, reference compound]” the “Neointimal/media Ratio (±SEM)” value (mouse carotid arteries; female mice) was 1.017 ± 0.3869, the “Neointimal/media Ratio (±SEM)” value (mouse carotid arteries; male mice) was 0.6690 ± 0.1111 and the “neointimal formation in human saphenous veins” value [2] was “neointima were identified”.

DPSKDCGDPKYAY was tested, and the “sequence required for cyclin E binding in truncation-based array” value (cyclin E [3]) was “minimum sequence”.

In the case of “LDPSKDCGDPKYAY [pep3(mouse), CycliCx peptide with mouse Cx43 residues at positions 257 and 263]”, the “PKC-phosphorylated Cx43 species (western blot, pS368)” value (Cx43) is reported as “predominantly induced”, the “phosphorylation status of Cx43 (western blot)” value (Cx43) is reported as “altered” and the “phosphorylation status of Cx43 (western blot)” value (Cx43; listed as pep3) is reported as “significantly altered”. The “interactions with cyclin E (co-immunoprecipitation)” value (cyclin E [4]) was “significantly reduced”.

“stearate-LDPAKDCGDQKYAY (Stearoyl-LDPAKDCGDQKYAY) [CycliCx]” was tested, and the “Neointimal/media Ratio (±SEM)” value (mouse carotid arteries; female mice) was 0.0060 ± 0.0379, the “Neointimal/media Ratio (±SEM)” value (mouse carotid arteries; male mice) was 0.0110 ± 0.0055 and the “neointimal formation induced by suture ligation” value (mouse carotid arteries; mouse carotid, peptide applied for 14 days) was “completely inhibited; also recorded: prevented”. The “neointimal formation in human saphenous veins” value [2] was “inhibited neointimal formation; also recorded: completely inhibited”, the “proliferation of A375-MA2 cells” value [5] was “significantly inhibit proliferation” and the “proliferation of Hs578T cells” value [6] was “significantly inhibit proliferation”. The “EDU incorporation (proliferation) of human smooth muscle cells” value ([1]; peptide pretreatment 30 minutes, then PDGF for 2 days, versus PDGF alone or Scr peptide) was “reduced”.

B1: platelet derived growth factor beta (protein, UniProt P01127 82-190, looked up)
Platelet-derived growth …: SLGSLTIAEPAMIAECKTRTEVFEISRRLIDRTNANFLVWPPCVEVQRCSGCCNNRNVQCRPTQVQLRPVQVRKIEIVRKKPIFKKATVTLEDHLACKCETVAAARPVT
notes: growth factor promoting MAPK phosphorylation of Cx43
In the case of B1, the “proliferation (EDU incorporation, flow cytometry)” value [1] is reported as “increased proliferation”.
